# In US10485235B2, “Aryloxypyrimidinyl ethers as herbicides” (FMC Corporation, priority 2015, dated 2019):
# Key:
# Type in all cases: in vivo
# [1] = system: foxtail, giant (giant foxtail, Setaria faberii); experiment: Test A preemergence, giant foxtail; conditions: Setaria faberi, pre-emergence, 240 h, read-out: Plant response rating, Foxtail, Giant
# Summary of the method: (§1)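 For postemergence, one- to two-leaf plants 2–10 cm tall were sprayed; for preemergence, seeded loam–sand soil got a directed spray. Both used compound in a non-phytotoxic, surfactant-containing solvent, with visual injury ratings (0–100) after roughly 10 greenhouse days.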
# [2] = system: barnyardgrass (Echinochloa crus-galli); experiment: Test A postemergence, barnyardgrass; conditions: Echinochloa crus-galli, post-emergence, 240 h, read-out: Plant response rating, Barnyardgrass
# Summary of the method: as §1
# [3] = system: blackgrass (Alopecurus myosuroides); experiment: Test A postemergence, blackgrass; conditions: Alopecurus myosuroides, post-emergence, 240 h, read-out: Plant response rating, Blackgrass
# Summary of the method: as §1
# [4] = system: galium (catchweed bedstraw, Galium aparine); experiment: Test A postemergence, galium; conditions: Galium, post-emergence, 240 h, read-out: Plant response rating, Galium
# Summary of the method: as §1
# [5] = system: ducksalad (Heteranthera limosa); experiment: Test B flooded paddy test, ducksalad; conditions: Heteranthera limosa, read-out: Plant response rating, Ducksalad
# Summary of the method: (§2)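 Plants grown to the 2-leaf stage; pots flooded to 3 cm above soil and compounds applied directly into the paddy water, depth held throughout. After 13 to 15 days in the greenhouse, injury was rated visually against untreated controls on a 0–100 scale (0 no effect, 100 complete control).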
# [6] = system: ryegrass, Italian (Italian ryegrass, Lolium multiflorum); experiment: Test A postemergence, Italian ryegrass; conditions: Lolium multiflorum, post-emergence, 240 h, read-out: Plant response rating, Ryegrass, Italian
# Summary of the method: as §1
# [7] = system: ragweed (common ragweed, Ambrosia elatior); experiment: Test A preemergence, ragweed; conditions: Ambrosia artemisiifolia, pre-emergence, 240 h, read-out: Plant response rating, Ragweed
# Summary of the method: as §1
# [8] = system: wheat (Triticum aestivum); experiment: Test A postemergence, wheat; conditions: Triticum aestivum, post-emergence, 240 h, read-out: Plant response rating, Wheat
# Summary of the method: as §1
# kochia (Kochia scoparia) [9] = experiment: Test A preemergence, kochia; conditions: Bassia scoparia, pre-emergence, 240 h, read-out: Plant response rating, Kochia
# Summary of the method: as §1
# [10] = system: pigweed (Amaranthus retroflexus); experiment: Test A preemergence, pigweed; conditions: Amaranthus retroflexus, pre-emergence, 240 h, read-out: Plant response rating, Pigweed
# Summary of the method: as §1
# [11] = system: barnyardgrass (Echinochloa crus-galli); experiment: Test B flooded paddy test, barnyardgrass; conditions: Echinochloa crus-galli, read-out: Plant response rating, Barnyardgrass
# Summary of the method: as §2
# kochia (Kochia scoparia) [12] = experiment: Test A postemergence, kochia; conditions: Bassia scoparia, post-emergence, 240 h, read-out: Plant response rating, Kochia
# Summary of the method: as §1
# corn (Zea mays) = experiment: Test A postemergence, corn; conditions: Zea mays, post-emergence, 240 h, read-out: Plant response rating, Corn
# Summary of the method: as §1
# [13] = system: ryegrass, Italian (Italian ryegrass, Lolium multiflorum); experiment: Test A preemergence, Italian ryegrass; conditions: Lolium multiflorum, pre-emergence, 240 h, read-out: Plant response rating, Ryegrass, Italian
# Summary of the method: as §1
# [14] = system: ragweed (common ragweed, Ambrosia elatior); experiment: Test A postemergence, ragweed; conditions: Ambrosia artemisiifolia, post-emergence, 240 h, read-out: Plant response rating, Ragweed
# Summary of the method: as §1
# rice (Oryza sativa) = experiment: Test B flooded paddy test, rice; conditions: Oryza sativa, read-out: Plant response rating, Rice
# Summary of the method: as §2
# [15] = system: foxtail, giant (giant foxtail, Setaria faberii); experiment: Test A postemergence, giant foxtail; conditions: Setaria faberi, post-emergence, 240 h, read-out: Plant response rating, Foxtail, Giant
# Summary of the method: as §1
# [16] = system: sedge, umbrella (small-flower umbrella sedge, Cyperus difformis); experiment: Test B flooded paddy test, umbrella sedge; conditions: Cyperus difformis, read-out: Plant response rating, Sedge, Umbrella
# Summary of the method: as §2
# [17] = system: barnyardgrass (Echinochloa crus-galli); experiment: Test A preemergence, barnyardgrass; conditions: Echinochloa crus-galli, pre-emergence, 240 h, read-out: Plant response rating, Barnyardgrass
# Summary of the method: as §1
# [18] = system: pigweed (Amaranthus retroflexus); experiment: Test A postemergence, pigweed; conditions: Amaranthus retroflexus, post-emergence, 240 h, read-out: Plant response rating, Pigweed
# Summary of the method: as §1
compound,measurement,setting,value
"FC(F)(F)C(F)(F)C(F)(F)COc1c(Br)cccc1Oc1ncc(Cl)cn1 [Compound 52, 2-[3-bromo-2-(2,2,3,3,4,4,4-heptafluorobutoxy)phenoxy]-5-chloropyrimidine]",pest or weed control at 125 g/ha,[1],80%
same,pest or weed control at 500 g/ha,[1],100%
same,pest or weed control at 125 g/ha,[2],10%
same,pest or weed control at 500 g/ha,[2],80%
same,pest or weed control at 125 g/ha,[3],10%
same,pest or weed control at 500 g/ha,[3],20%
same,pest or weed control at 125 g/ha,[4],40%
same,pest or weed control at 500 g/ha,[4],90%
same,pest or weed control at 250 g/ha,[5],75%
same,pest or weed control at 125 g/ha,[6],20%
same,pest or weed control at 500 g/ha,[6],40%
same,pest or weed control at 125 g/ha,[7],0%
same,pest or weed control at 500 g/ha,[7],0%
same,plant injury at 125 g/ha,[8],0%
same,plant injury at 500 g/ha,[8],20%
same,pest or weed control at 125 g/ha,kochia (Kochia scoparia) [9],0%
same,pest or weed control at 500 g/ha,kochia (Kochia scoparia) [9],40%
same,pest or weed control at 125 g/ha,[10],70%
same,pest or weed control at 500 g/ha,[10],100%
same,pest or weed control at 250 g/ha,[11],0%
same,pest or weed control at 125 g/ha,kochia (Kochia scoparia) [12],70%
same,pest or weed control at 500 g/ha,kochia (Kochia scoparia) [12],90%
same,plant injury at 125 g/ha,corn (Zea mays),10%
same,plant injury at 500 g/ha,corn (Zea mays),30%
same,pest or weed control at 125 g/ha,[13],10%
same,pest or weed control at 500 g/ha,[13],50%
same,pest or weed control at 125 g/ha,[14],20%
same,pest or weed control at 500 g/ha,[14],30%
same,plant injury at 250 g/ha,rice (Oryza sativa),15%
same,pest or weed control at 125 g/ha,[15],20%
same,pest or weed control at 500 g/ha,[15],80%
same,pest or weed control at 250 g/ha,[16],90%
same,pest or weed control at 125 g/ha,[17],30%
same,pest or weed control at 500 g/ha,[17],50%
same,pest or weed control at 125 g/ha,[18],80%
same,pest or weed control at 500 g/ha,[18],100%
